What was measured:
[1] = tested on: serum GPT elevation due to carbon tetrachloride liver damage; assay: Carbon tetrachloride induced liver damage in rats, inhibition of serum GPT elevation; assay type: in vivo, Male Sprague Dawley rats; conditions: given twice (1 hour before and 3 hours after carbon tetrachloride 1 ml/kg orally), blood 24 hours after, route not given
Description: The experimental liver damage was induced with carbon tetrachloride as the challenging agent. Carbon tetrachloride caused liver damage resembling that of alcohol-induced liver injury.
Male Sprague Dawley rats weighing around 160 grams were used. Carbon tetrachloride was dissolved in olive oil to obtain 20% solution, which was administed in doses of 5ml/kg orally (carbon tetrachloride: 1 ml/ kg). The test compounds were suspended in Cremophor buffer for intraperitoneal administration, and in 0.5% methyl cellulose solution for oral administration; and the test solutions were administered in doses of 5ml/kg respectively. The administration of the test compound was conducted twice, namely, 1 hour before and 3 hours after the administration of carbon tetrachloride. 24 hours after the administration of carbon tetrachloride, blood was collected via the great abdominal vein, and the level of serum GPT was measured. […] Thus, the compounds of this invention are usuful for agents for treatment and prevention of liver damage.
Other compounds, of formula I-B, were also found to have activity inhibiting the elevation of GPT due to carbon tetrachloride administration.

[2] = tested on: increase in GPT level, galactosamine-induced liver damage; assay: D-galactosamine challenge in rats (test compound in 0.5 % methyl cellulose), inhibition of increase in serum GPT; assay type: in vivo, SD male rats; conditions: 30 mg/kg oral in 0.5 % methyl cellulose, twice (1 hour before and 3 hours after D-galactosamine 425mg/kg i.p.), blood 24 hours after
Description: Experimental liver damage was induced with D-galactosamine as the challenging agent. Liver damage caused by D-galactosamine resembled that of acute hepatitis. The galactosamine hepatitis model is described in known prior art.
Animals used: SD male rats (7 week age, about 220 g body weight)
Administration method of the challenge compound: • D-galactosamine was dissolved in a physiological sodium chloride aqueous solution, and this solution was administered intraperitoneally to give galactosamine-induced liver damage. (Administered dose: 425mg/4mllkg) Administration method of the test compound: The test compound was suspended in 0.5 % methyl cellulose solution, and administered in doses of 30 mg/5 mi/kg, orally. The test compound was administered twice (1 hour before the D-galactosamine administration and 3 hours after its administration). 24 hours after the D-galactosamine administration, blood was obtained from the pentobarbital-anesthetized rats,and the level of serum-GPT was determined.

[3] = Solubility in water (statement); assay type: physicochemical; conditions: qualitative statement
[4] = Absorbability / bioavailability (statement); assay type: in vivo; conditions: qualitative statement; oral suspension in 0.5 % methyl cellulose

Molecule | Inhibiting effect (%) (30mg/kg administration) [1] | Inhibition rate (%) (30mg/kg, oral administration) [2] | also measured
COC(=O)c1c(C)nc(C)c(C(=O)OC)c1-c1ccc2c(c1OC)OCO2 [Example 2, dimethyl 4-(2-methoxy-3,4-methylenedioxy)phenyl-2,6-dimethylpyridine-3,5-dicarboxylate] | 81.1 | – | –
COC(=O)C1=C(C)NC(C)=C(C(=O)OC)C1c1ccc2c(c1C(=O)OC)OCO2 [Example 7, dimethyl 4-(2-methoxycarbonyl-3,4-meth-lenedioxy)phenyl-2,6-dimethyl-1,4-dihydropyridine-3,5-dicarboxylate] | 74.9 | 70.7 | –
COC(=O)c1c(-c2c(C(=O)OC)c(C)nc(C)c2C(=O)OC)cc(OC)c2c1OCO2 [Example 14] | – | 67.8 | –
COC(=O)C1=C(C)NC(C)=C(C(=O)OC)C1c1cc2c(cc1Br)OCO2 [Example 22, Dimethyl 4-(3,4-methylenedioxy-6-bromo)phenyl-2,6-dimethyl-1,4-dihydropyridine-3,5-dicarboxylate] | 82.3 | – | –
COC(=O)c1c(C)nc(C)c(C(=O)OC)c1-c1c([N+](=O)[O-])ccc2c1OCO2 [Example 36, Dimethyl 4-(2,3-methylenedioxy-6-nitro)phenyl-2,6-dimethylpyridine-3,5-dicarboxylate] | 89.7 | – | –
COC(=O)C1=C(C)NC(C)=C(C(=O)OC)C1c1ccccc1C(=O)OC [Example C, dimethyl 4-(2-methoxycarbonyl)phenyl-2,6-dimethyl-1,4-dihydropyridine-3,5-dicarboxylate] | 91.6 | – | –
COC(=O)C1=C(C)NC(C)=C(C(=O)OC)C1c1cccc2c1OCO2 [Example P, dimethyl 4-(2,3-methylenedioxy)phenyl-2,6-dimethyl-1,4-dihydropyridine-3,5-dicarboxylate] | 85.4 | – | –
COC(=O)c1c(C)nc(C)c(C(=O)OC)c1-c1cccc2c1OCO2 [Example U, dimethyl 4-(2,3-methylenedioxy)phenyl-2,6-dimethylpyridine-3,5-dicarboxylate] | 76.0 | – | –
CCOc1c(N)c2c(c(OCC)c1OCC)C(C1c3c(cc4c(c3OC)OCO4)CCN1C)OC2=O (stereo not shown) [Tritoqualine] | – | 0 | solubility in water [3]: difficultly soluble in water; bioavailability (absorbability) [4]: low bioavailability
dimethyl 4-(3,4-methylenedioxy)phenyl-2,6-dimethyl-1,4-dihydropyridine-3,5-dicarboxylate [Example A] | 68.6 | – | –

— patent publication EP0285267A2, “Pyridine derivatives for treatment and prevention of liver damage, and their preparation” (YAMANOUCHI PHARMACEUTICAL CO. LTD., priority 1987, dated 1988)
